# Laboratory results from patent US20230000936A1, “A[…] ITCHING […] C[…]” (Demetrix, Inc., priority 2021, published 2023).
# “Also recorded” adds a separate entry of the source.
# Columns and labels:
# Assay type in all cases: cell-based
# [1] = molecular target: T1, EDG3 (Homo sapiens, UniProt Q99500); test: IC50 antagonist activity screen, PathHunter β-Arrestin, EDG3; conditions: for maximum inhibition (antagonism) EDG3: maximum of IC50 curve
# Protocol: (§1) In each of the antagonist assays, PathHunter® cell lines were removed from a freezer stock and seeded at a volume of 20 μL into white walled, 384-well microplates and incubated at 37° C. Each cell was pre-incubated with an antagonist followed by an agonist challenge at the EC80 concentration. Cells were then diluted to generate a 5× sample in assay buffer. 5 μL of the 5× sample was then added to cells and incubated at 37° C. for 30 minutes. Finally, 5 μL of 6×EC80 agonist in assay buffer were added to the cells and incubated at 37° C. for 90 minutes or 180 minutes. The assay signal was generated through addition of 12.5 μL or 15 μL (50% V/V) of a detection reagent cocktail followed by a one hour incubation time at room temperature. Microplates were read following signal generation with a PerkinElmer Envision™ (PerkinElmer Inc., Waltham, Mass.) for chemiluminescent signal detection. Reactivity was analyzed using the CBIS data analysis suite (ChemInnovation, CA) where RLU refers to the raw measured values. The percent inhibition was calculated using the formula: % Inhibition=100%*(1−mean RLU of test sample−mean RLU of control)/(mean RLU of EC80 control−mean RLU of vehicle control).
# (§2) IC50 curves were measured using the same GPCR assay, PathHunter® β-Arrestin from Eurofins DiscoverX Products (Fremont, Calif.), as the GPCR reactivity screen. As used herein, strong activity against a receptor is considered a maximum activity of about 42% or higher. Higher results for antagonism against CHRM2, EDGE, and MRGPRX2 are considered better. It is further considered better when a cannabinoid inhibits more than one of the receptors.
# [2] = molecular target: T2, CHRM2 (Homo sapiens, UniProt P08172); test: IC50 antagonist activity screen, PathHunter β-Arrestin, CHRM2; conditions: for maximum inhibition (antagonism) CHRM2: maximum of IC50 curve
# T2 sequence (P08172 1-466): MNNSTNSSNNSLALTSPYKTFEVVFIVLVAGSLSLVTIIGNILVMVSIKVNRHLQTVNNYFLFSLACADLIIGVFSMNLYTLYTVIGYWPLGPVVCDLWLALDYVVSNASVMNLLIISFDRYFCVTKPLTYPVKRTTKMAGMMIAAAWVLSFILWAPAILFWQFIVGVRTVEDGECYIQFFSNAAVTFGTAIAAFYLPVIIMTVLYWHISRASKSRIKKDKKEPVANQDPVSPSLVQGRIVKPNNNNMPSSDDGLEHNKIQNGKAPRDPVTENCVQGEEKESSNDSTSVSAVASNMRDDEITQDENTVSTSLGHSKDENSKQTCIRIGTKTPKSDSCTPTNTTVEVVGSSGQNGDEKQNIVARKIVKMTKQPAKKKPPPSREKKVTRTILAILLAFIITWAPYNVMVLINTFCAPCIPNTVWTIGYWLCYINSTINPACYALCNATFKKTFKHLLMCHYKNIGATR
# Protocol: as §1, §2
# [3] = molecular target: T3, MRGPRX2 (Homo sapiens, UniProt Q96LB1); test: IC50 antagonist activity screen, PathHunter β-Arrestin, MRGPRX2; conditions: for maximum inhibition (antagonism) MRGPRX2: maximum of IC50 curve; for antagonism of MRGPRX2 (in words): IC50 data
# T3 sequence (Q96LB1 1-330): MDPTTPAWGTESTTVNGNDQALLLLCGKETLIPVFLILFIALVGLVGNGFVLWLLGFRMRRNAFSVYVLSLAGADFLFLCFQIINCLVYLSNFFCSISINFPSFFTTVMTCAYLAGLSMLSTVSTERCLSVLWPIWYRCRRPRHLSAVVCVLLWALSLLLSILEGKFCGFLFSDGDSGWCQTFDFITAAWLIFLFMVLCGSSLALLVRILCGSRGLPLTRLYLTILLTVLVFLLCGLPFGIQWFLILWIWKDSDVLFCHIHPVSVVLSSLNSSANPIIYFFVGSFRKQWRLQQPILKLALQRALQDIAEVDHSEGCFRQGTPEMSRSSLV
# Protocol: as §1, §2
# [4] = molecular target: T1, EDG3; test: GPCR reactivity screen, PathHunter β-Arrestin, antagonist assay EDG3; conditions: for EDG3 (Antagonist) percent inhibition: antagonist mode, agonist challenge at EC80
# Protocol: (§3) To evaluate the role specific cannabinoid compounds play in the neurological signaling pathway for itching, a GPCR reactivity assay was performed to determine the reactivity of 19 cannabinoid compounds to each of CHRM2, EDG3, and MRGPRX2. The evaluated cannabinoid compounds were: CBN, THCV, CBDVA, CBG, CBL, CBC, CBDV, CBDA, CBD, CBGA, (+)-CBD, CBG-C4, CBD-C1, CBD-C2, CBGV, CBGA-C4, CBGVA, CBCA, and CBLA. Acetylcholine was used as the control for CHRM2, sphingosine-1-phosphate was used as the control for EDG3; and cortistatin 14 was used as the control for MRGPRX2.
# as §1
# (§4) As used herein, strong activity against a receptor is considered a percent activity of about 42% or higher. Higher results for antagonism against CHRM2, EDGE, and MRGPRX2 are considered better. It is further considered better when a cannabinoid inhibits more than one of the receptors.
# [5] = molecular target: T2, CHRM2; test: GPCR reactivity screen, PathHunter β-Arrestin, agonist assay CHRM2; design: concentration or dose not given beside the values; conditions: agonist mode; control acetylcholine
# Protocol: as §3
# (§5) A total of six assays were run. Specifically, agonist and antagonist assays were run for each of CHRM2, EDG3, and MRGPRX2. In each of the three agonist assays, PathHunter® cell lines were removed from a freezer stock and seeded at a volume of 20 μL into white walled, 384-well microplates and incubated at 37° C. Each cell was incubated with a sample to induce a response and then diluted to generate a 5× sample in assay buffer. 5 μL of the 5× sample was then added to cells and incubated at 37° C. for 90 or 180 minutes. The final assay concentration was 1%. The assay signal was generated through addition of 12.5 μL or 15 μL (50% V/V) of a detection reagent cocktail followed by a one hour incubation time at room temperature. Microplates were read following signal generation with a PerkinElmer Envision™ (PerkinElmer Inc., Waltham, Mass.) for chemiluminescent signal detection. Reactivity was analyzed using the CBIS data analysis suite (ChemInnovation, CA) where RLU refers to the raw measured values. The percent activity was then calculated using the formula: % Activity=100%*(mean RLU of test sample−mean RLU of control)/(mean max control ligand−mean RLU of vehicle control).
# as §4
# [6] = molecular target: T3, MRGPRX2; test: GPCR reactivity screen, PathHunter β-Arrestin, antagonist assay MRGPRX2; conditions: for antagonist activity against MRGPRX2 (in words): GPCR reactivity screen; for MRGPRX2 (Antagonist) percent inhibition: antagonist mode, agonist challenge at EC80
# Protocol: as §3, §1, §4
# [7] = molecular target: T1, EDG3; test: GPCR reactivity screen, PathHunter β-Arrestin, agonist assay EDG3; design: concentration or dose not given beside the values; conditions: agonist mode; control sphingosine-1-phosphate
# Protocol: as §3, §5, §4
# [8] = molecular target: T3, MRGPRX2; test: GPCR reactivity screen, PathHunter β-Arrestin, agonist assay MRGPRX2; conditions: agonist mode; control cortistatin 14
# Protocol: as §3, §5, §4
# [9] = molecular target: T2, CHRM2; test: GPCR reactivity screen, PathHunter β-Arrestin, antagonist assay CHRM2; conditions: for CHRM2 (Antagonist) percent inhibition: antagonist mode, agonist challenge at EC80; for antagonist activity against CHRM2 (in words): GPCR reactivity screen
# Protocol: as §3, §1, §4
# T1 sequence (Q99500 whole entry): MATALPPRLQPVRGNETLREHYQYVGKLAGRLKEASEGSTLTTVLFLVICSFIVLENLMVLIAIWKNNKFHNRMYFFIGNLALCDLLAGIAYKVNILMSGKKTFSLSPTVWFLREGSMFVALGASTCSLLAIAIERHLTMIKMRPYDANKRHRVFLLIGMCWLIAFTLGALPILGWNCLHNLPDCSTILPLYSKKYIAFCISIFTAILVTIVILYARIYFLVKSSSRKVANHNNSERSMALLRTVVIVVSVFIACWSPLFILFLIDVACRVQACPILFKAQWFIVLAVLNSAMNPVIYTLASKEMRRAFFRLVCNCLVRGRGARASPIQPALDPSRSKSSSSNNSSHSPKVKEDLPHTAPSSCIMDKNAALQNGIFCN
Compound,maximum inhibition (antagonism) EDG3 [1],maximum inhibition (antagonism) CHRM2 [2],maximum inhibition (antagonism) MRGPRX2 [3],antagonism of EDG3 (in words) ([1]; IC50 data),antagonism of CHRM2 (in words) ([2]; IC50 data),antagonism of MRGPRX2 (in words) [3],EDG3 (Antagonist) percent inhibition [4],CHRM2 (Agonist) percent activity [5],antagonist activity against MRGPRX2 (in words) [6],MRGPRX2 (Antagonist) percent inhibition [6],EDG3 (Agonist) percent activity [7],MRGPRX2 (Agonist) percent activity [8],CHRM2 (Antagonist) percent inhibition [9],antagonist activity against CHRM2 (in words) [9],antagonist activity against EDG3 (in words) ([4]; GPCR reactivity screen)
"C=C(C)[C@@H]1CCC(C)=C[C@H]1c1c(O)cc(CCCCCC)cc1O [CBD-C6, cannabidol hexyl]",11%,64%,98%,–,–,–,–,–,–,–,–,–,–,–,–
"C=C(C)[C@@H]1CCC(C)=C[C@H]1c1c(O)cc(CCCCCCC)cc1O [CBD-C7, cannabidol heptyl]",20%,90%,98%,–,–,–,–,–,–,–,–,–,–,–,–
"C=C(C)[C@@H]1CCC(C)=C[C@H]1c1c(O)cc(CCCCCCCCC)cc1O [CBD-C9, cannabidol nonyl]",0%,90%,96%,did not act as an antagonist,remaining as an antagonist,remaining as an antagonist,–,–,–,–,–,–,–,–,–
"C=C(C)[C@@H]1CCC(C)=C[C@H]1c1c(O)cc(CCC)cc1O [CBDV, cannabidivarin]",–,27%,59%,–,–,–,24%,3%,antagonist activity,71%,1%,3%,34%,–,–
"CCCCCCc1cc(O)c(C/C=C(\C)CCC=C(C)C)c(O)c1 [CBG-C6, cannabigerol hexyl]",15%,0%,66%,–,–,–,–,–,–,–,–,–,–,–,–
"CCCCCCCc1cc(O)c(C/C=C(\C)CCC=C(C)C)c(O)c1 [CBG-C7, cannabigerol heptyl]",32%,10%,99%,–,–,–,–,–,–,–,–,–,–,–,–
"CCCCCCCCCc1cc(O)c(C/C=C(\C)CCC=C(C)C)c(O)c1 [CBG-C9, cannabigerol nonyl]",55%,32%,100%,–,–,–,–,–,–,–,–,–,–,–,–
"CCCc1cc(O)c(C/C=C(\C)CCC=C(C)C)c(O)c1 [CBGV, cannabigerivarin]",–,–,76%,–,–,–,29%,0%,antagonist activity,95%,2%,1%,28%,–,–
"CCCCCc1cc(O)c2c(c1)OC1(C)CCC3C1C2C3(C)C (stereo not drawn) [CBL, cannabicyclol]",–,47%,81%,–,–,–,9%,13%,antagonist activity,82%,−1%,11%,84%,antagonist activity,–
"CCCCCc1cc2c(c(O)c1C(=O)O)C1C3C(CCC3(C)O2)C1(C)C (stereo not drawn) [CBLA, cannabicyclolic acid]",–,–,44%,–,–,–,19%,−4%,–,36%,3%,2%,−19%,–,–
"CCCCCc1cc(O)c2c(c1)OC(C)(C)c1ccc(C)cc1-2 [CBN, cannabinol]",–,–,78%,–,–,–,12%,0%,antagonist activity,73%,5%,22%,7%,–,–
"CCCc1cc(O)c2c(c1)OC(C)(C)[C@@H]1CCC(C)=C[C@@H]21 [THCV, tetrahydrocannabivarin]",–,0%,21%,–,–,inhibition was not observed,20%,18%,do not exhibit an antagonistic effect; also recorded: antagonist activity; also recorded: demonstrated antagonism,55%,1%,18%,42%,do not exhibit an antagonistic effect,do not exhibit an antagonistic effect
